According to ChEMBL document CHEMBL1159364, “Inhibition of [3H]-LSD binding to 5-HT7 receptors by flavonoids from Scutellaria lateriflora” (J Nat Prod, 2003):

molecular target: 5-hydroxytryptamine receptor 7 (Homo sapiens, UniProt P34969); assay: Displacement of [3H]LSD from human 5HT7 receptor expressed in CHO cells; type: cell-based
Sequence (P34969 whole entry): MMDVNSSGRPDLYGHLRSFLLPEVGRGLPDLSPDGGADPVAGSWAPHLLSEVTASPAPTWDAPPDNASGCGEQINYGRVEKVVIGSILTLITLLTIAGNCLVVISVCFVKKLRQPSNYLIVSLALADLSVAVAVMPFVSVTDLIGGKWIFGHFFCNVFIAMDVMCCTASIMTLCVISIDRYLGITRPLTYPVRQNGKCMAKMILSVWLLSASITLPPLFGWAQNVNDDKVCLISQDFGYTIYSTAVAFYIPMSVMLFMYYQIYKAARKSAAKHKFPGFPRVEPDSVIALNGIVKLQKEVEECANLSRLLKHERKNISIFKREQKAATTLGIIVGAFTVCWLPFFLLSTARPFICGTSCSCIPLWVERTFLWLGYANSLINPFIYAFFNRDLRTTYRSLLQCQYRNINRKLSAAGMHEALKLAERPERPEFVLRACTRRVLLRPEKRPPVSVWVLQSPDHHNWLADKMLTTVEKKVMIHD

Compound | IC50 [µM]
COc1c(O)cc(O)c2c(=O)cc(-c3ccccc3)oc12 [WOGONIN] | > 350
O=c1cc(-c2ccccc2)oc2cc(O)c(O)c(O)c12 [BAICALEIN] | > 350
O=C(O)[C@H]1O[C@@H](Oc2cc3oc(-c4ccc(O)cc4)cc(=O)c3c(O)c2O)[C@H](O)[C@@H](O)[C@@H]1O [SCUTELLARIN] | 63.4

Other lines, results leading:

IC50 [µM] | Compound
135 | O=C(O)[C@H]1O[C@@H](Oc2cc3oc(-c4ccccc4O)cc(=O)c3c(O)c2O)[C@H](O)[C@@H](O)[C@@H]1O [IKONNIKOSIDE I]
179 | O=C1C[C@@H](c2ccccc2)Oc2cc(O[C@@H]3O[C@H](C(=O)O)[C@@H](O)[C@H](O)[C@H]3O)c(O)c(O)c21 [DIHYDROBAICALIN]
> 200 | O=C(O)[C@H]1O[C@@H](Oc2cc3oc(-c4ccccc4)cc(=O)c3c(O)c2O)[C@H](O)[C@@H](O)[C@@H]1O [BAICALIN]
